Assay results from US9387202B2, “Pyridone amides and analogs exhibiting anti-cancer and anti-proliferative activities” (priority 2011, dated 2016).

Experiments:
[1] = target: T1, c-MET kinase (Seq. ID No. 2), cMET WT (Homo sapiens, UniProt P08581); assay: c-MET kinase assay (WT MET biochemical assay); conditions: for Fold potency decrease versus Example 1, cMET WT: relative to Example 1 = 1; for Fold potency decrease versus Example 2, cMET WT: relative to Example 2 = 1
T1 construct: c-MET (c-MET residues: 956-1390, from Invitrogen, catalogue #PV3143, 6 nM); purchased Invitrogen PV3143
T1 sequence (P08581 with tags, fused parts or gaps): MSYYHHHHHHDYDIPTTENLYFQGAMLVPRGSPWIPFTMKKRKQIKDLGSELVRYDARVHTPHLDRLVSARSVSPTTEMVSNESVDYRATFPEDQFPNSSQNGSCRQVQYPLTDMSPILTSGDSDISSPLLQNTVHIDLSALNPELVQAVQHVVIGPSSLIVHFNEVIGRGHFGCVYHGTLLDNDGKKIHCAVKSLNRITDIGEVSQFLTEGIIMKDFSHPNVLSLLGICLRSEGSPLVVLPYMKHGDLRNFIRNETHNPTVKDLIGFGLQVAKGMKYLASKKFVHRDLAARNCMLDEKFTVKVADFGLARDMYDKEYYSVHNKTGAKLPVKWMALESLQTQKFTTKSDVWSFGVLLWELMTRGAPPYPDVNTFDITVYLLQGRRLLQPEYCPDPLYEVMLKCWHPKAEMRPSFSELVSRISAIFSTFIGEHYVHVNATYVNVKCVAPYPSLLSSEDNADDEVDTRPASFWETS
Description: Activity of c-MET kinase (Seq. ID No. 2) was determined by following the production of ADP from the kinase reaction through coupling with the pyruvate kinase/lactate dehydrogenase system (e.g., Schindler et al. Science 2000, 289, pp. 1938-1942). In this assay, the oxidation of NADH (thus the decrease at A340 nm) was continuously monitored spectrophotometrically. The reaction mixture (100 μl) contained c-MET (c-MET residues: 956-1390, from Invitrogen, catalogue #PV3143, 6 nM), polyE4Y (1 mg/mL), MgCl2 (10 mM), pyruvate kinase (4 units), lactate dehydrogenase (0.7 units), phosphoenol pyruvate (1 mM), and NADH (0.28 mM) in 90 mM Tris buffer containing 0.25 mM DTT, 0.2% octyl-glucoside and 1% DMSO, pH 7.5. Test compounds were incubated with c-MET (Seq. ID No. 2) and other reaction reagents at 22° C. for 0.5 h before ATP (100 μM) was added to start the reaction. The absorption at 340 nm was monitored continuously for 2 hours at 30° C. on Polarstar Optima plate reader (BMG). The reaction rate was calculated using the 1.0 to 2.0 h time frame. Percent inhibition was obtained by comparison of reaction rate with that of a control (i.e., with no test compound). IC50 values were calculated from a series of percent inhibition values determined at a range of inhibitor concentrations using software routines as implemented in the GraphPad Prism software package.

MET (D1246H) Mutant = MET (D1246H) Mutant (Homo sapiens, UniProt P08581, D1228H); assay: Mutant MET kinase biochemical assay, D1246H; conditions: for Fold potency decrease versus Example 1, MET (D1246H) Mutant: relative to Example 1 = 1; for Fold potency decrease versus Example 2, MET (D1246H) Mutant: relative to Example 2 = 1
MET (D1246N) Mutant = MET (D1246N) Mutant (Homo sapiens, UniProt P08581, D1228N); assay: Mutant MET kinase biochemical assay, D1246N; conditions: for Fold potency decrease versus Example 1, MET (D1246N) Mutant: relative to Example 1 = 1; for Fold potency decrease versus Example 2, MET (D1246N) Mutant: relative to Example 2 = 1
Sequence of MET (D1246N) Mutant (P08581 25-1408 isoform P08581-2 D1246N limits assumed): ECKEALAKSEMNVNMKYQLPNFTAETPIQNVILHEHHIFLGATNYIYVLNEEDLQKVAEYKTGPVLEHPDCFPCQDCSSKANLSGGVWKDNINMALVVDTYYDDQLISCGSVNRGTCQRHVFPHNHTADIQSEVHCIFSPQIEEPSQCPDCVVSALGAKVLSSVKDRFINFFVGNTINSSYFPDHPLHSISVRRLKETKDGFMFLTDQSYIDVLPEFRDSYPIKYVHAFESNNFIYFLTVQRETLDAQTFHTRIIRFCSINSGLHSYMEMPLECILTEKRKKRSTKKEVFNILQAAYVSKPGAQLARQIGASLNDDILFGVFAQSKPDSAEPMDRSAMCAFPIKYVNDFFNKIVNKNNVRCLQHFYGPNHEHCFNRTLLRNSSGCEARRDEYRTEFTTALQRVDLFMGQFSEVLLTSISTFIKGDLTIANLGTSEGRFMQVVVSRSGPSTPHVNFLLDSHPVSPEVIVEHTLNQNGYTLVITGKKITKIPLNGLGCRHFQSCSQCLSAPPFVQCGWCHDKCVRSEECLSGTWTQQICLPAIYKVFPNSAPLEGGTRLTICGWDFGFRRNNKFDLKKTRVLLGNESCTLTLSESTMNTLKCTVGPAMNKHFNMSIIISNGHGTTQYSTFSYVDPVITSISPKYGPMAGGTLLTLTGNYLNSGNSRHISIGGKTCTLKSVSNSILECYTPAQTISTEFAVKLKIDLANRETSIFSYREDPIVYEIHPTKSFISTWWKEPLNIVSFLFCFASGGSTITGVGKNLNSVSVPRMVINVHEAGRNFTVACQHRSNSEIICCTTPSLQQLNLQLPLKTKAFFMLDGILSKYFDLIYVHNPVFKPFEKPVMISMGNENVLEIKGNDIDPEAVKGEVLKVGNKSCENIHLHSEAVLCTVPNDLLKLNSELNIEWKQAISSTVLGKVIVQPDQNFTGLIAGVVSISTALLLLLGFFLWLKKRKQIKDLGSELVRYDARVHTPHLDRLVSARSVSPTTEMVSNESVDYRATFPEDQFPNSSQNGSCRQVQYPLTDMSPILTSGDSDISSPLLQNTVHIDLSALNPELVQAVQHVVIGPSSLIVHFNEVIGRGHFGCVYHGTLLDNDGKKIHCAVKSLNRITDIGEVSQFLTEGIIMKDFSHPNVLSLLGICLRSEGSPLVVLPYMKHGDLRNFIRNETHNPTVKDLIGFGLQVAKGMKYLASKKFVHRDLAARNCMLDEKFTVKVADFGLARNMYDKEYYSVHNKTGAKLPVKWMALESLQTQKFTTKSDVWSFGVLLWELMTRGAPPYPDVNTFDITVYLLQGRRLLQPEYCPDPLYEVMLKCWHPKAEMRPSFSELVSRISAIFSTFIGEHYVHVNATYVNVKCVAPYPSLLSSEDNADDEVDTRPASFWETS

MET (Y1248C) Mutant = MET (Y1248C) Mutant (Homo sapiens, UniProt P08581, Y1230C); assay: Mutant MET kinase biochemical assay, Y1248C; conditions: for Fold potency decrease versus Example 1, MET (Y1248C) Mutant: relative to Example 1 = 1; for Fold potency decrease versus Example 2, MET (Y1248C) Mutant: relative to Example 2 = 1
MET (Y1248H) Mutant = MET (Y1248H) Mutant (Homo sapiens, UniProt P08581, Y1230H); assay: Mutant MET kinase biochemical assay, Y1248H; conditions: for Fold potency decrease versus Example 1, MET (Y1248H) Mutant: relative to Example 1 = 1; for Fold potency decrease versus Example 2, MET (Y1248H) Mutant: relative to Example 2 = 1
Sequence of MET (Y1248H) Mutant (P08581 25-1408 isoform P08581-2 Y1248H limits assumed): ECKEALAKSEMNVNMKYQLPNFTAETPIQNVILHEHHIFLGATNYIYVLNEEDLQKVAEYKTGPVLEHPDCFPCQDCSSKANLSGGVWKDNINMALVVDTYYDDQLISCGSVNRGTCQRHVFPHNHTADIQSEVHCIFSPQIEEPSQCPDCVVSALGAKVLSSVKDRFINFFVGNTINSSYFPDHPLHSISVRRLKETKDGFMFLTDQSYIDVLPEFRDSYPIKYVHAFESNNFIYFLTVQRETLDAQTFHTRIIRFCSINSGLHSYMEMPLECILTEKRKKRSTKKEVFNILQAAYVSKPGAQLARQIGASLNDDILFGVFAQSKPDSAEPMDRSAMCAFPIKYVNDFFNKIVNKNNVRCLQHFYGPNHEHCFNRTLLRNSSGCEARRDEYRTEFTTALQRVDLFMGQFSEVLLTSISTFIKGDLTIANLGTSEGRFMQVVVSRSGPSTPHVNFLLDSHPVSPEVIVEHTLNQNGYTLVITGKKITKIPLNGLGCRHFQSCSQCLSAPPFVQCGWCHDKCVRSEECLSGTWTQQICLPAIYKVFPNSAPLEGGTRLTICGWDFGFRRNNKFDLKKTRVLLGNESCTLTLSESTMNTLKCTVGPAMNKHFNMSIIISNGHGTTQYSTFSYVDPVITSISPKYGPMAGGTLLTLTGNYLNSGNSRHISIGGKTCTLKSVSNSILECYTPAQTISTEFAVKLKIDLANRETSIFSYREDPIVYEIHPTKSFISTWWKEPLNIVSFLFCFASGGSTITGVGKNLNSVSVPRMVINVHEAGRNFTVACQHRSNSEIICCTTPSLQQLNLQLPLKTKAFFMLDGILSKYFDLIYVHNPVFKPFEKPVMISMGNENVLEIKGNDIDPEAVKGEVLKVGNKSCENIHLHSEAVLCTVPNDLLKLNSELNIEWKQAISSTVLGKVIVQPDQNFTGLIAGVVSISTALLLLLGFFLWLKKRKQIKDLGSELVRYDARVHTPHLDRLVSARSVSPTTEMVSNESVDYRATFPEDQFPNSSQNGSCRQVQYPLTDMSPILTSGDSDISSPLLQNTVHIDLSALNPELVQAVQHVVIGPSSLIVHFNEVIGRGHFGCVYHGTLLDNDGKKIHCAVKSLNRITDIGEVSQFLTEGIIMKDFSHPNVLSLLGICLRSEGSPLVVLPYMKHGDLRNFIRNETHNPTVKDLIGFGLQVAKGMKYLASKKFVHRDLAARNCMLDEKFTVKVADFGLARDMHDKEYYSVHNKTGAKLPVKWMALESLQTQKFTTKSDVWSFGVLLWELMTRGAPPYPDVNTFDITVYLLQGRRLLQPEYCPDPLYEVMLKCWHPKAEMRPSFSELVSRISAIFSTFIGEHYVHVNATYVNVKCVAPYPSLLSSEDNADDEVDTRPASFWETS

[2] = target: T2, Phospho-MET in EBC-1 cells (Homo sapiens, UniProt P08581); assay: EBC-1 Phospho-MET ELISA; format: cell-based
T2 construct: host or cells: EBC-1
T2 sequence (P08581 25-1390): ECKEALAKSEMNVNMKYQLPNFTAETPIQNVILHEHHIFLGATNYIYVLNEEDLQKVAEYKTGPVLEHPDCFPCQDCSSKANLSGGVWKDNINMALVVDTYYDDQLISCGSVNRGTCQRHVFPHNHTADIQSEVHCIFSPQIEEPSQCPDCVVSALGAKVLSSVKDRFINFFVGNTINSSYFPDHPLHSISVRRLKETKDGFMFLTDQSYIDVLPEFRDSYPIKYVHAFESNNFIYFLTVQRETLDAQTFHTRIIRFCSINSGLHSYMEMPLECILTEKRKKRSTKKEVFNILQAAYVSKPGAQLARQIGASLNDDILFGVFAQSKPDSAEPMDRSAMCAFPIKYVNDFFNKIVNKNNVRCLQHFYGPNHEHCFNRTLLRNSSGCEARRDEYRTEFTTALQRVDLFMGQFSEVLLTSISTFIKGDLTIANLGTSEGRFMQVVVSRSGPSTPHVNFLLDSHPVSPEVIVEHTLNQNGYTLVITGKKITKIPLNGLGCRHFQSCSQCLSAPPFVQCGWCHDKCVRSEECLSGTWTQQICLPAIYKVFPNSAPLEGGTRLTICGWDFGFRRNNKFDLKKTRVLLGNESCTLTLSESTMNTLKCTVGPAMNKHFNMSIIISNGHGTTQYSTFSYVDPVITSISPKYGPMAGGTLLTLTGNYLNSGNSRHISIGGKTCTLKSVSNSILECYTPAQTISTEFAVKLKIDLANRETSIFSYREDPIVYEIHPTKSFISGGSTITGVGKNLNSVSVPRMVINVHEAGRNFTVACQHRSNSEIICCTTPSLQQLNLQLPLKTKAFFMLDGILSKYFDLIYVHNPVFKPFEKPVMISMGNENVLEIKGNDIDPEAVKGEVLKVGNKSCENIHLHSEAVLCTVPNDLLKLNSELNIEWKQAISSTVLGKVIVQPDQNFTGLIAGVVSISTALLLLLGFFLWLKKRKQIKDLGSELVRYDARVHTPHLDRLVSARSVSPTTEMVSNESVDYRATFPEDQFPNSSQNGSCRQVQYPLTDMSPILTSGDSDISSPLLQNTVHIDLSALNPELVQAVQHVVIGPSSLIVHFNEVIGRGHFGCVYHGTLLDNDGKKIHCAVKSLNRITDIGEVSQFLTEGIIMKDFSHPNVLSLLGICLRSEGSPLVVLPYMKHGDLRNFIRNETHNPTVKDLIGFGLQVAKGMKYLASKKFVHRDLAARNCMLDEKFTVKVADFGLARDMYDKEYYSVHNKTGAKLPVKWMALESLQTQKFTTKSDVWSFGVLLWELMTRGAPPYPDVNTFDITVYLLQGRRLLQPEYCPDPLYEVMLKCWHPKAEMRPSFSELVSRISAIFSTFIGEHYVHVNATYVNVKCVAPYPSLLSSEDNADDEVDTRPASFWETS
Description: (§1) EBC-1 cells (catalog #JCRB0820) were obtained from the Japan Health Science Research Resources Bank, Osaka, Japan. Briefly, cells were grown in DMEM supplemented with 10% characterized fetal bovine serum (Invitrogen, Carlsbad, Calif.) at 37° C., 5% CO2, 95% humidity. Cells were allowed to expand until reaching 70-95% confluency at which point they were subcultured or harvested for assay use.
Fifteen thousand cells in DMEM supplemented with 0.5% characterized fetal bovine serum (FBS; Invitrogen, Carlsbad, Calif.) were added per well in a 96-well black clear bottom plate (Corning, Corning, N.Y.). Cells were then incubated overnight at 37 degrees Celsius, 5% CO2, 95% humidity. A serial dilution of test compound was dispensed into another 96-well black clear bottom plate (Corning, Corning, N.Y.) containing DMEM supplemented with 0.5% FBS. Diluted compound was then added to plates containing cells and incubated for 6 hours at 37 degrees Celsius, 5% CO2, 95% humidity. Cells were stimulated with 40 ng/mL HGF (R&D Systems, Minneapolis, Minn.) for 10 minutes, and then lysed. Phospho-MET in cell lysates was detected using the DuoSet IC Human Phospho-HGF R/c-MET ELISA (R&D Systems, Minneapolis, Minn.). Data was analyzed using Prism software (Graphpad, San Diego, Calif.) to calculate IC50 values.

[3] = target: T3, Phospho-MET in MKN-45 cells (Homo sapiens, UniProt P08581); assay: MKN-45 Phospho-MET ELISA; format: cell-based
T3 construct: host or cells: MKN-45
Description: as §1, with “MKN-45” for “EBC-1”, “#JCRB0254)” for “#JCRB0820)”, “RPMI 1640 media” for “DMEM”
Twenty-five thousand cells in RPMI-1640 supplemented with 10% characterized fetal bovine serum (Invitrogen, Carlsbad, Calif.) were added per well in a 96-well black clear bottom plate (Corning, Corning, N.Y.). Cells were then incubated overnight at 37 degrees Celsius, 5% CO2, 95% humidity. Media was then aspirated and cells were washed with PBS. A serial dilution of test compound was dispensed into another 96-well black clear bottom plate (Corning, Corning, N.Y.) containing serum-free RPMI-1640. Compound was added to plates containing cells and incubated for 6 hours at 37 degrees Celsius, 5% CO2, 95% humidity. Cells were stimulated with 40 ng/mL HGF (R&D Systems, Minneapolis, Minn.) for 10 minutes, and then lysed. Phospho-MET in cell lysates was detected using the DuoSet IC Human Phospho-HGF R/c-MET ELISA (R&D Systems, Minneapolis, Minn.). Data was analyzed using Prism software (Graphpad, San Diego, Calif.) to calculate IC50 values.

A549 cells = assay: A549 HGF-stimulated MET-dependent cell migration assay; format: cell-based
[4] = system: oncogenic Mutant MET kinase; assay: various oncogenic Mutant MET kinase biochemical assays (summarised); conditions: range over columns 3-6; for Fold less potent than Example 1 in the various oncogenic Mutant MET kinase biochemical assays: relative to Example 1; for Fold less potent than Example 2 in the various oncogenic Mutant MET kinase biochemical assays: relative to Example 2
[5] = relative to Example 1 = 1, listed as the '229 Compound
[6] = relative to Example 2 = 1, listed as the '229 Compound

SMILES | Fold potency decrease versus Example 1, cMET WT [1] [×] | Fold potency decrease versus Example 2, cMET WT [1] [×] | Fold potency decrease versus Example 1, MET (D1246H) Mutant (MET (D1246H) Mutant) [×] | Fold potency decrease versus Example 2, MET (D1246H) Mutant (MET (D1246H) Mutant) [×] | Fold potency decrease versus Example 1, MET (D1246N) Mutant (MET (D1246N) Mutant) [×] | Fold potency decrease versus Example 2, MET (D1246N) Mutant (MET (D1246N) Mutant) [×] | Fold potency decrease versus Example 1, MET (Y1248C) Mutant (MET (Y1248C) Mutant) [×] | Fold potency decrease versus Example 2, MET (Y1248C) Mutant (MET (Y1248C) Mutant) [×] | Fold potency decrease versus Example 1, MET (Y1248H) Mutant (MET (Y1248H) Mutant) [×] | Fold potency decrease versus Example 2, MET (Y1248H) Mutant (MET (Y1248H) Mutant) [×] | Fold potency decrease versus Example 1, EBC-1 p-MET ([2]; relative to Example 1 = 1) [×] | Fold potency decrease versus Example 2, EBC-1 p-MET ([2]; relative to Example 2 = 1) [×] | Fold potency decrease versus Example 1, MKN-45 p-MET ([3]; relative to Example 1 = 1) [×] | Fold potency decrease versus Example 2, MKN-45 p-MET ([3]; relative to Example 2 = 1) [×] | Fold potency decrease versus Example 1, A549 MIG (A549 cells; relative to Example 1 = 1) [×] | Fold potency decrease versus Example 2, A549 MIG (A549 cells; relative to Example 2 = 1) [×] | Fold less potent than Example 1 in the various oncogenic Mutant MET kinase biochemical assays [4] | Fold less potent than Example 2 in the various oncogenic Mutant MET kinase biochemical assays [4] | also measured
CCOc1ccn(-c2ccc(F)cc2)c(=O)c1C(=O)Nc1cc(F)c(Oc2ccnc(N)c2)cc1F [Compound A, N-(4-((2-aminopyridin-4-yl)oxy)-2,5-difluorophenyl)-4-ethoxy-1-(4-fluorophenyl)-2-oxo-1,2-dihydropyridine-3-carboxamide] | 2.4 | 2.7 | 6.7 | 4 | 4.4 | 5.7 | 6 | 5.7 | 2.6 | 18.3 | 11.7 | 21.5 | 18.8 | 18.8 | 3.4 | 8.9 | 2.6-6.7 × | 4-18.3 × | –
CCOc1ccn(-c2ccc(F)cc2)c(=O)c1C(=O)Nc1cc(F)c(Oc2ccnc(NC(C)=O)c2)cc1F [Example 1, N-(4-((2-acetamidopyridin-4-yl)oxy)-2,5-difluorophenyl)-4-ethoxy-1-(4-fluorophenyl)-2-oxo-1,2-dihydropyridine-3-carboxamide] | 1 | – | 1 | – | 1 | – | 1 | – | 1 | – | 1 | – | 1 | – | 1 | – | – | – | –
CCOc1ccn(-c2ccc(F)cc2)c(=O)c1C(=O)Nc1cc(F)c(Oc2ccnc(NC(=O)CC)c2)cc1F [Example 2, N-(2,5-difluoro-4-((2-propionamidopyridin-4-yl)oxy)phenyl)-4-ethoxy-1-(4-fluorophenyl)-2-oxo-1,2-dihydropyridine-3-carboxamide] | – | 1 | – | 1 | – | 1 | – | 1 | – | 1 | – | 1 | – | 1 | – | 1 | – | – | –
CCOc1ccn(-c2ccc(F)cc2)c(=O)c1C(=O)Nc1ccc(Oc2ccnc(N)c2Cl)c(F)c1 [The ′229 Compound] | 3.9 | 4.4 | 8.5 | 5.1 | 2 | 2.5 | 3.8 | 3.6 | 2.3 | 15.7 | 22.5 | 41.5 | 73.8 | 73.7 | 2.4 | 6.3 | 2.3-8.5 × | 2.5-15.7 × | Fold potency decrease versus Example 1, cMET WT ([1]; listed as the '229 Compound): 3.9 ×; Fold potency decrease versus Example 2, cMET WT ([1]; listed as the '229 Compound): 4.4 ×; Fold potency decrease versus Example 1, EBC-1 p-MET [2, 5]: 22.5 ×; Fold potency decrease versus Example 2, EBC-1 p-MET [2, 6]: 41.5 ×; Fold potency decrease versus Example 1, MKN-45 p-MET [3, 5]: 73.8 ×; Fold potency decrease versus Example 2, MKN-45 p-MET [3, 6]: 73.7 ×; Fold potency decrease versus Example 1, A549 MIG (A549 cells; [5]): 2.4 ×; Fold potency decrease versus Example 2, A549 MIG (A549 cells; [6]): 6.3 ×
